Results from patent publication US11420958B2, “Aryl and heteroaryl substituted indole compounds” (BRISTOL-MYERS SQUIBB COMPANY, priority 2017, dated 2022).

Experiments:
Format in all cases: cell-based
human TLR7 = human TLR7 (Homo sapiens (Human), UniProt Q9NYK1); experiment: TLR7 inhibition reporter assay (HEK-Blue, SEAP); conditions: HEK-Blue cells overexpressing human TLR7, gardiquimod 7.5 μM stimulation
How it was run: (§1)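 Cells are treated with compound over a 0.05 nM–50 μM final range for 30 min at room temperature before agonist addition: gardiquimod at 7.5 μM for TLR7, R848 at 15.9 μM for TLR8, ODN2006 at 5 nM for TLR9. SEAP is measured after 22 h at 37 °C.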

human TLR8 = human TLR8 (Homo sapiens (Human), UniProt Q9NR97); experiment: TLR8 inhibition reporter assay (HEK-Blue, SEAP); conditions: HEK-Blue cells overexpressing human TLR8, R848 15.9 μM stimulation
human TLR8, sequence (Q9NR97 27-1041): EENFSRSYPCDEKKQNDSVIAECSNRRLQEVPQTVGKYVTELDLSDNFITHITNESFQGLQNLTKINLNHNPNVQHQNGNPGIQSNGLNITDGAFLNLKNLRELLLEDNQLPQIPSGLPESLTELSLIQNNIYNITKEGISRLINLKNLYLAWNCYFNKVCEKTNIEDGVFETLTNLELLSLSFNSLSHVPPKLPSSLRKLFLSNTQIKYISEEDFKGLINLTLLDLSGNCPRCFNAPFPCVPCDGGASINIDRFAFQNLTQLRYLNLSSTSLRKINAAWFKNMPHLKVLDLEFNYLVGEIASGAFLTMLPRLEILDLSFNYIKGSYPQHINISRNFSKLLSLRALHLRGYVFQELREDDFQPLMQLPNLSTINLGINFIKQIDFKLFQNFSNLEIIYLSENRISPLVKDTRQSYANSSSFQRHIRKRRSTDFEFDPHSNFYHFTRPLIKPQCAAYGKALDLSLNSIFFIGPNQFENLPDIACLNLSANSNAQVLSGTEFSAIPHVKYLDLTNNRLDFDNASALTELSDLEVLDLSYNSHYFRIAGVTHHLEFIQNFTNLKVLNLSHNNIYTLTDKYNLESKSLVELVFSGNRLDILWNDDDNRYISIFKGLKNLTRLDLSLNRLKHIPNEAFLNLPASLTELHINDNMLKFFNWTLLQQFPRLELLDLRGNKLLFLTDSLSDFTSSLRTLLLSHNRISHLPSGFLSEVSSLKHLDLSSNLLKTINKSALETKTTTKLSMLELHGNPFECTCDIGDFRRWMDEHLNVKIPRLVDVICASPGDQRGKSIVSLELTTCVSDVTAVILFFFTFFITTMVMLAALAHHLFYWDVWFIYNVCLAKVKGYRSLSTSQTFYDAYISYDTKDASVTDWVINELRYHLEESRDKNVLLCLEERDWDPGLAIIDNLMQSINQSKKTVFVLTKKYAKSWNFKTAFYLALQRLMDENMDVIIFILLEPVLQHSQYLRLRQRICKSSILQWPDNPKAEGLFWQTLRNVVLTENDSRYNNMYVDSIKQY
How it was run: as §1

human TLR9 = human TLR9 (Homo sapiens (Human), UniProt Q9NR96); experiment: TLR9 inhibition reporter assay (HEK-Blue, SEAP); conditions: HEK-Blue cells overexpressing human TLR9, ODN2006 5 nM stimulation
human TLR9, sequence (Q9NR96 26-1032): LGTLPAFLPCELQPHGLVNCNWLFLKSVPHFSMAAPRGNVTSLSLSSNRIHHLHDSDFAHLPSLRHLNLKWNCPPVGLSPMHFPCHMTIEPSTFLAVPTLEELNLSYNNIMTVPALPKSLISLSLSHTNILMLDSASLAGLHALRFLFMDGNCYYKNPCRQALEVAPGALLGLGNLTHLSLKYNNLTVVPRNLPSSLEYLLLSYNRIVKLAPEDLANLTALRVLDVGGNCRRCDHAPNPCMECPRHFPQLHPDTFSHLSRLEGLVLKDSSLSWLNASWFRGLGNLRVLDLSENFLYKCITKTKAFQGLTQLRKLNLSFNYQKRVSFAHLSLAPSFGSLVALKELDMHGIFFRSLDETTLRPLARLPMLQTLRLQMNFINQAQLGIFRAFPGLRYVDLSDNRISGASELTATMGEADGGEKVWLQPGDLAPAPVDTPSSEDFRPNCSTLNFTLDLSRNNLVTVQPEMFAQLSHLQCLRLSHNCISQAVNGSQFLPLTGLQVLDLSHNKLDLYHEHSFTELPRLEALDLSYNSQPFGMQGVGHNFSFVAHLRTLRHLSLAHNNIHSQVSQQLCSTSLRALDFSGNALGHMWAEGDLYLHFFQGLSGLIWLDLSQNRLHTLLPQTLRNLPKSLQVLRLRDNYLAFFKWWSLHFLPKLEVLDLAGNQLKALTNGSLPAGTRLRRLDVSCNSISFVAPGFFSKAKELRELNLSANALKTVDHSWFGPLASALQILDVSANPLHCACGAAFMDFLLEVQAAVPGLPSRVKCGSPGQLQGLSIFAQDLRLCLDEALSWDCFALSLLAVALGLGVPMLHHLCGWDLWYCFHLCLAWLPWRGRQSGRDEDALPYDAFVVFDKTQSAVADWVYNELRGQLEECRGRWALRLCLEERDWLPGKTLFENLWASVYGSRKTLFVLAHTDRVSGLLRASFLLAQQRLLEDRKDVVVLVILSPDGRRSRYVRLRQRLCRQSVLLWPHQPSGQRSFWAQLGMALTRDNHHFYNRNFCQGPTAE
How it was run: as §1

human TLR7, sequence (Q9NYK1 27-1049): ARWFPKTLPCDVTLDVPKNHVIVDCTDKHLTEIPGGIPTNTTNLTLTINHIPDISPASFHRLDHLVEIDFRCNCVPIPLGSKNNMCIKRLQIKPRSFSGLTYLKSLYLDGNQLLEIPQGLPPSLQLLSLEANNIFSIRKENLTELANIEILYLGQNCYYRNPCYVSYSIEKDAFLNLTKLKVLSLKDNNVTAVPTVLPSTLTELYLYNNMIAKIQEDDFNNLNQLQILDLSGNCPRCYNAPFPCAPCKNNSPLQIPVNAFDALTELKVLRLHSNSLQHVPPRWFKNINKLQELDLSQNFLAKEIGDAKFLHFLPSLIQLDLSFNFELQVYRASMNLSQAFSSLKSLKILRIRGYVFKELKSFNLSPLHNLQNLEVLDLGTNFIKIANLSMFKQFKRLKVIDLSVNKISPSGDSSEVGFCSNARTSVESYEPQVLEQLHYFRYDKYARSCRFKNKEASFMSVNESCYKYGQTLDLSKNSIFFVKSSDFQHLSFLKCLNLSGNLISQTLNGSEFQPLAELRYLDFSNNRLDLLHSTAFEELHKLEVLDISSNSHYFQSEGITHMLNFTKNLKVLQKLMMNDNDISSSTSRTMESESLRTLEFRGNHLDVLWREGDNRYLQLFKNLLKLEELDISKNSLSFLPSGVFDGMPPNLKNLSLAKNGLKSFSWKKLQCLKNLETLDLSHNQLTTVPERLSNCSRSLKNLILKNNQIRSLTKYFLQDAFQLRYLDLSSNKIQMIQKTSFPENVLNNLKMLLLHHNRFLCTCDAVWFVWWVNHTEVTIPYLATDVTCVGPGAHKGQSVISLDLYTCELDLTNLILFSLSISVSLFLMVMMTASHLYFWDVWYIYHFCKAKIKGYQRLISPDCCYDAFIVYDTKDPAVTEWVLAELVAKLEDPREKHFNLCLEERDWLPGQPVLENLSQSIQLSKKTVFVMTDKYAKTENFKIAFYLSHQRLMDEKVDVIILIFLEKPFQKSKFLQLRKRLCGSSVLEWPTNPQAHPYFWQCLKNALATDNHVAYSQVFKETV

CC(C)c1c(-c2ccc3ncnn3c2)[nH]c2ccc(-c3nnc([C@@H]4CCCNC4)o3)cc12 [Example 227, (R)-2-(2-([1,2,4]triazolo[1,5-a]pyridin-6-yl)-3-isopropyl-1H-indol-5-yl)-5-(piperidin-3-yl)-1,3,4-oxadiazole]
IC50 (human TLR7): 61 nM | IC50 (human TLR8): 9.4 nM | IC50 (human TLR9): 892 nM

Cc1cc(-c2[nH]c3ccc(-c4cc5c(s4)CN(C(C)C)CC5)cc3c2C(C)C)ccn1 [Example 228, 6-isopropyl-2-(3-isopropyl-2-(2-methylpyridin-4-yl)-1H-indol-5-yl)-4,5,6,7-tetrahydrothieno[2,3-c]pyridine]
IC50 (human TLR7): 50 nM | IC50 (human TLR8): 0.9 nM | IC50 (human TLR9): 652 nM

CC(C)c1c(-c2ccnc3[nH]ncc23)[nH]c2ccc(-c3cc4c(s3)CNCC4)cc12 [Example 229, 2-(3-isopropyl-2-(1H-pyrazolo[3,4-b]pyridin-4-yl)-1H-indol-5-yl)-4,5,6,7-tetrahydrothieno[2,3-c]pyridine]
IC50 (human TLR7): 32 nM | IC50 (human TLR8): 1.5 nM | IC50 (human TLR9): 961 nM

Cc1cc(-c2[nH]c3ccc(-c4nnc(C(=O)N5CCC(N)CC5)o4)cc3c2C(C)C)cc(C)n1 [Example 230, (4-aminopiperidin-1-yl)(5-(2-(2,6-dimethylpyridin-4-yl)-3-isopropyl-1H-indol-5-yl)-1,3,4-oxadiazol-2-yl)methanone]
IC50 (human TLR7): 19 nM | IC50 (human TLR8): 9.3 nM | IC50 (human TLR9): 343 nM

Cc1cc(-c2[nH]c3ccc(-c4nnc(C5CN6CCC5CC6)o4)cc3c2C(C)C)ccn1 (stereo not drawn) [Example 231, 2-(3-isopropyl-2-(2-methylpyridin-4-yl)-1H-indol-5-yl)-5-(quinuclidin-3-yl)-1,3,4-oxadiazole]
IC50 (human TLR7): 69 nM | IC50 (human TLR8): 5.9 nM | IC50 (human TLR9): 895 nM

Cc1cc(-c2[nH]c3ccc(-c4nnc([C@@H]5CCCNC5)o4)cc3c2C(C)C)cc(C)n1 [Example 232, (R)-2-(2-(2,6-dimethylpyridin-4-yl)-3-isopropyl-1H-indol-5-yl)-5-(piperidin-3-yl)-1,3,4-oxadiazole]
IC50 (human TLR7): 11 nM | IC50 (human TLR8): 3.2 nM | IC50 (human TLR9): 950 nM

CC(C)c1c(-c2ccnc3[nH]ncc23)[nH]c2ccc(-c3nc(C(=O)N4CCCN(C)CC4)co3)cc12 [Example 233, (2-(3-isopropyl-2-(1H-pyrazolo[3,4-b]pyridin-4-yl)-1H-indol-5-yl)oxazol-4-yl)(4-methyl-1,4-diazepan-1-yl)methanone]
IC50 (human TLR7): 195 nM | IC50 (human TLR8): 2.5 nM | IC50 (human TLR9): 2080 nM

CC(C)c1c(-c2ccnc3[nH]ncc23)[nH]c2ccc(-c3nc(C(=O)NCCN(C)C)co3)cc12 [Example 234, N-(2-(dimethylamino)ethyl)-2-(3-isopropyl-2-(1H-pyrazolo[3,4-b]pyridin-4-yl)-1H-indol-5-yl)oxazole-4-carboxamide]
IC50 (human TLR7): 229 nM | IC50 (human TLR8): 4.5 nM | IC50 (human TLR9): 366 nM

Cc1cc(-c2[nH]c3ccc(-c4ccc(Cl)nc4)cc3c2C(C)C)ccn1 [Example 235, 5-(6-chloropyridin-3-yl)-3-isopropyl-2-(2-methylpyridin-4-yl)-1H-indole]
IC50 (human TLR7): 667 nM | IC50 (human TLR8): 301 nM | IC50 (human TLR9): > 50000 nM

Cc1cc(-c2[nH]c3ccc(-c4ccc(N)nc4)cc3c2C(C)C)cc(C)n1 [Example 236, 5-(2-(2,6-dimethylpyridin-4-yl)-3-isopropyl-1H-indol-5-yl)pyridin-2-amine]
IC50 (human TLR7): 13 nM | IC50 (human TLR8): 2.7 nM | IC50 (human TLR9): 655 nM

Cc1cc(-c2[nH]c3ccc(-c4ccc(N)nc4)cc3c2C(C)C)ccn1 [Example 237, 5-(3-isopropyl-2-(2-methylpyridin-4-yl)-1H-indol-5-yl)pyridin-2-amine]
IC50 (human TLR7): 30 nM | IC50 (human TLR8): 2 nM | IC50 (human TLR9): 9730 nM

Cc1cc(-c2[nH]c3ccc(-c4ccc(NC(=O)CN(C)C)nc4)cc3c2C(C)C)cc(C)n1 [Example 238, 2-(dimethylamino)-N-(5-(2-(2,6-dimethylpyridin-4-yl)-3-isopropyl-1H-indol-5-yl)pyridin-2-yl)acetamide]
IC50 (human TLR7): 9.7 nM | IC50 (human TLR8): 2.7 nM | IC50 (human TLR9): 451 nM

CNCCNc1ccc(-c2ccc3[nH]c(-c4cc(C)nc(C)c4)c(C(C)C)c3c2)cn1 [Example 239, N1-(5-(2-(2,6-dimethylpyridin-4-yl)-3-isopropyl-1H-indol-5-yl)pyridin-2-yl)-N2-methylethane-1,2-diamine]
IC50 (human TLR7): 4.8 nM | IC50 (human TLR8): 2.2 nM | IC50 (human TLR9): 589 nM

Cc1cc(-c2[nH]c3ccc(-c4nnc(C(=O)N5CCC(NC(C)C)CC5)o4)cc3c2C(C)C)cc(C)n1 [Example 240, (5-(2-(2,6-dimethylpyridin-4-yl)-3-isopropyl-1H-indol-5-yl)-1,3,4-oxadiazol-2-yl)(4-(isopropylamino)piperidin-1-yl)methanone]
IC50 (human TLR7): 39 nM | IC50 (human TLR8): 7.5 nM | IC50 (human TLR9): 367 nM

CC(C)c1c(-c2ccc3nccn3c2)[nH]c2ccc(-c3nnc(C(=O)NC4CCN(C(C)C)CC4)o3)cc12 [Example 241, 5-(2-(imidazo[1,2-a]pyridin-6-yl)-3-isopropyl-1H-indol-5-yl)-N-(1-isopropylpiperidin-4-yl)-1,3,4-oxadiazole-2-carboxamide]
IC50 (human TLR7): 43 nM | IC50 (human TLR8): 43 nM | IC50 (human TLR9): 306 nM

CC(C)c1c(-c2ccc3nccn3c2)[nH]c2ccc(-c3nnc(C(=O)NCCN(C)C)o3)cc12 [Example 242, N-(2-(dimethylamino)ethyl)-5-(2-(imidazo[1,2-a]pyridin-6-yl)-3-isopropyl-1H-indol-5-yl)-1,3,4-oxadiazole-2-carboxamide]
IC50 (human TLR7): 22 nM | IC50 (human TLR8): 30 nM | IC50 (human TLR9): 306 nM

FC(F)Cc1c(-c2ccnc3[nH]ncc23)[nH]c2ccc(-c3nnc([C@@H]4CCCNC4)o3)cc12 [Example 243, (R)-2-(3-(2,2-difluoroethyl)-2-(1H-pyrazolo[3,4-b]pyridin-4-yl)-1H-indol-5-yl)-5-(piperidin-3-yl)-1,3,4-oxadiazole]
IC50 (human TLR7): 2280 nM | IC50 (human TLR8): 1300 nM | IC50 (human TLR9): 3260 nM

Cc1cc(-c2[nH]c3ccc(-c4nnc([C@@H]5CCCN(C(C)C)C5)o4)cc3c2C(C)C)cc(C)n1 [Example 245, (R)-2-(2-(2,6-dimethylpyridin-4-yl)-3-isopropyl-1H-indol-5-yl)-5-(1-isopropylpiperidin-3-yl)-1,3,4-oxadiazole]
IC50 (human TLR7): 5.4 nM | IC50 (human TLR8): 1.5 nM | IC50 (human TLR9): 304 nM

Cc1cc(-c2[nH]c3ccc(-c4ccc(N(C)C)nc4)cc3c2C(C)C)ccn1 [Example 246, 5-(3-isopropyl-2-(2-methylpyridin-4-yl)-1H-indol-5-yl)-N,N-dimethylpyridin-2-amine]
IC50 (human TLR7): 56 nM | IC50 (human TLR8): 21 nM | IC50 (human TLR9): > 50000 nM

Cc1cc(-c2[nH]c3ccc(-c4ccc(NC(C)C)nc4)cc3c2C(C)C)ccn1 [Example 247, N-isopropyl-5-(3-isopropyl-2-(2-methylpyridin-4-yl)-1H-indol-5-yl)pyridin-2-amine]
IC50 (human TLR7): 84 nM | IC50 (human TLR8): 6.4 nM | IC50 (human TLR9): 5540 nM

Cc1cc(-c2[nH]c3ccc(-c4ccc(NC(C)C)nc4)cc3c2C(C)C)cc(C)n1 [Example 248, 5-(2-(2,6-dimethylpyridin-4-yl)-3-isopropyl-1H-indol-5-yl)-N-isopropylpyridin-2-amine]
IC50 (human TLR7): 20 nM | IC50 (human TLR8): 2.6 nM | IC50 (human TLR9): 4070 nM

Cc1cc(-c2[nH]c3ccc(-c4nnc(C5CN6CCC5CC6)o4)cc3c2C(C)C)cc(C)n1 (stereo not drawn) [Example 250, 2-(2-(2,6-dimethylpyridin-4-yl)-3-isopropyl-1H-indol-5-yl)-5-(quinuclidin-3-yl)-1,3,4-oxadiazole]
IC50 (human TLR7): 3.4 nM | IC50 (human TLR8): 2.1 nM | IC50 (human TLR9): 113 nM

Cc1cc(-c2[nH]c3ccc(-c4cc5c(s4)CN(C)CC5)cc3c2C(C)C)ccn1 [Example 251, 2-(3-isopropyl-2-(2-methylpyridin-4-yl)-1H-indol-5-yl)-6-methyl-4,5,6,7-tetrahydrothieno[2,3-c]pyridine]
IC50 (human TLR7): 35 nM | IC50 (human TLR8): 1.4 nM | IC50 (human TLR9): 484 nM

CNCC(=O)N1CCc2cc(-c3ccc4[nH]c(-c5ccnc(C)c5)c(C(C)C)c4c3)sc2C1 [Example 252, 1-(2-(3-isopropyl-2-(2-methylpyridin-4-yl)-1H-indol-5-yl)-4,7-dihydrothieno[2,3-c]pyridin-6(5H)-yl)-2-(methylamino)ethan-1-one]
IC50 (human TLR7): 22 nM | IC50 (human TLR8): 12 nM | IC50 (human TLR9): 788 nM

Cc1cc(-c2[nH]c3ccc(-c4ccc(N5CCN(C)CC5)nc4)cc3c2C(C)C)ccn1 [Example 253, 3-isopropyl-5-(6-(4-methylpiperazin-1-yl)pyridin-3-yl)-2-(2-methylpyridin-4-yl)-1H-indole]
IC50 (human TLR7): 45 nM | IC50 (human TLR8): 22 nM | IC50 (human TLR9): 304 nM

Cc1cc(-c2[nH]c3ccc(-c4cnc(C5CCNCC5)[nH]4)cc3c2C(C)C)ccn1 [Example 254, 3-isopropyl-2-(2-methylpyridin-4-yl)-5-(2-(piperidin-4-yl)-1H-imidazol-5-yl)-1H-indole]
IC50 (human TLR7): 88 nM | IC50 (human TLR8): 77 nM | IC50 (human TLR9): 1210 nM

Cc1cc(-c2[nH]c3ccc(-c4ccc(N5CCNCC5)nc4)cc3c2C(C)C)ccn1 [Example 255, 3-isopropyl-2-(2-methylpyridin-4-yl)-5-(6-(piperazin-1-yl)pyridin-3-yl)-1H-indole]
IC50 (human TLR7): 12 nM | IC50 (human TLR8): 2.9 nM | IC50 (human TLR9): 340 nM

CC(=O)Nc1ccc(-c2ccc3[nH]c(-c4ccnc(C)c4)c(C(C)C)c3c2)cn1 [Example 256, N-(5-(3-isopropyl-2-(2-methylpyridin-4-yl)-1H-indol-5-yl)pyridin-2-yl)acetamide]
IC50 (human TLR7): 99 nM | IC50 (human TLR8): 15 nM | IC50 (human TLR9): > 50000 nM
